The target of experiment [1] is T1, human chemokine receptor CCR2 (Homo sapiens, UniProt P41597).
T1 construct: expressed in transfected cells; host or cells: HEK293T, transient
As to the kind of experiment: Cellular NanoBiT β-arrestin recruitment assay. The note with it: in the presence of CCL2 (10 nM), HEK293T cells. It is filed as cell-based. The protocol:
(PerkinElmer, Groningen, NL).
Cellular NanoBiT β-arrestin recruitment assays: Chemokine-induced β-arrestin-2 recruitment to chemokine receptors CCR1 and CCR2 was monitored using a nanoluciferase complementation -based assay (NanoBiT, Promega). 17-19 5 x 10^6 HEK293T cells were plated in 10 cm dishes and cultured for 24 h before transfection with vectors encoding for the human chemokine receptor CCR1 or CCR2 C-terminally fused with SmBiT and β-arrestin 2 N-terminally fused with LgBiT. 24 h after transfection cells were harvested, distributed into white 96-well plates (5 × 10^4 cells per well) and incubated for 1 h at 37 °C with compound 23 at concentrations ranging from 10 nM to 10 µM. The endogenous chemokine ligand CCL5 (3 nM, for CCR1) or CCL2 (10 nM, for CCR2) was then added, and luminescence generated upon nanoluciferase complementation in the presence of coelenterazine H was measured with a Mithras LB940 luminometer (Berthold Technologies) for 20 min. […]
Finally, the top 5% of the identified hits were subsequently docked to a homology model of CCR1 (vide infra). After visual examination of the obtained binding modes 24 hit compounds were identified for further investigation .
Molecular docking: For the docking studies in the course of our virtual screening campaign, the CCR1 protein was […]
27, 28 CCR1 structure was optimized using the Quickprep and structure preparation wizard in MOE 24 using CHARMM27 forcefield. The protein was saved in mol2 format and loaded in GOLD.25, 26 The amino acids defining the IABS were listed in a text file to define the docking cavity. 50 GA runs were performed for docking CCR2-RA-[R] (4-[R]) and SN_12 (43), with the generated solutions clustered based on their RMSD with the threshold set to 0.75 Å using the complete linkage method. Docking runs were performed using ChemScore. […]
In general terms: Activated receptors often draw arrestin, which recruitment assays turn into a signal.

For experiment [2], the target named is T2, CCR1 (Homo sapiens, UniProt P32246).
T2 sequence (P32246 1-355): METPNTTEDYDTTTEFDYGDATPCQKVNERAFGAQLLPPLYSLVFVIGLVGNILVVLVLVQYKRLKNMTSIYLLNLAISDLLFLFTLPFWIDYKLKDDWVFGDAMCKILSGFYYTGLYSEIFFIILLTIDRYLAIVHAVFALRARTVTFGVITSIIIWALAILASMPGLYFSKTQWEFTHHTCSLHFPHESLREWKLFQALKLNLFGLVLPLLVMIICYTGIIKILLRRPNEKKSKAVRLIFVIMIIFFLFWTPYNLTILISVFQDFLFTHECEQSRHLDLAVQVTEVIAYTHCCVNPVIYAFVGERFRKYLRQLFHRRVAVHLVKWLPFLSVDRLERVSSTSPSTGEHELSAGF
As to the kind of experiment: Membrane-based NanoBRET competition kinetic assay with 12 (1000 nM) and CCR1_Nluc membranes. Set-up: Promega pNLF1-C (Nluc) #CCR010TN00; host or cells: HEK293T, transient (PEI). It is filed as binding. In general terms: In BRET a luciferase serves as donor, and the signal depends on an acceptor being close.

This note sets out measurements from PMC11249626, “Fluorophore-Labeled Pyrrolones Targeting the Intracellular Allosteric Binding Site of the Chemokine Receptor CCR1” (ACS Pharmacology & Translational Science, 2024).

Molecules are shown by their SMILES. Where two headings read alike, the source gives them in different places.

T1 sequence (P41597 whole entry): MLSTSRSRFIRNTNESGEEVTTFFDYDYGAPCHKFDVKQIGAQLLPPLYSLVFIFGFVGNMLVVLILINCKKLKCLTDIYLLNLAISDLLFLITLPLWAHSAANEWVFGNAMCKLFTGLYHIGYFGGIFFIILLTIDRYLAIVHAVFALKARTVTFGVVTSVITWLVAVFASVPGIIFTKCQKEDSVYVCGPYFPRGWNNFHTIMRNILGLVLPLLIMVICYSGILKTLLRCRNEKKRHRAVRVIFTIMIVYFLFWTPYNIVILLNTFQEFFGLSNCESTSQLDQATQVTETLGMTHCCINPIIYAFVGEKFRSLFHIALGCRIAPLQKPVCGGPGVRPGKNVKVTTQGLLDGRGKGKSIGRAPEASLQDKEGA

For `O=C(C1=C(O)C(=O)N(CCc2ccc(O)cc2)C1c1ccc(F)cc1)c1ccccc1` (racemic) [compound 23], the IC50 is 186 µM in experiment [1] (read-out: IC50 (CCR2), β-arrestin recruitment) and 195 µM in experiment [1] (read-out: pIC50(CCR2), β-arrestin recruitment (converted)).
Usually koff stands for a measure of how fast the partners let go of each other. The term kon denotes the rate constant with which the complex forms. A higher kon goes with faster complex formation. Usually Ki stands for a dissociation constant, usually derived from enzyme kinetics or from competition with a known ligand. `CC(=O)C1=C(O)C(=O)N(c2ccc(Br)cc2F)C1C1CCCCC1` (stereo not drawn) [compound 5, reference compound]: in experiment [2] (CCR1_Nluc membranes), the off-rate constant (koff) is 0.0019 s⁻¹, the on-rate (kon) is 723000 M⁻¹ s⁻¹ and the “tr (kinetic competition)” value stood at 9.1 ± 0.5 min. In addition, the inhibitory constant (Ki) in experiment [2] (kinetic competition, read-out: Ki(kin.)) was found to be 0.00263 µM.
